According to PubChem BioAssay (NCI):
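A five-concentration, 48-hour dose response in 96-well plates underlies each endpoint, interpolated linearly between surrounding concentrations. GI50: concentration for 50% inhibition of growth. TGI is the concentration that stops growth completely.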

Assays:
Experiment in all cases: NCI-60 cell line screen, 48 h
SN12C renal = system: SN12C renal
ACHN renal = system: ACHN renal
NCI-H460 lung = system: NCI-H460 lung
DU-145 prostate = system: DU-145 prostate
NCI-H23 lung = system: NCI-H23 lung
EKVX NSCLC = system: EKVX NSCLC
KM12 colon = system: KM12 colon
UACC-257 melanoma = system: UACC-257 melanoma
U251 CNS = system: U251 CNS
SR leukemia = system: SR leukemia

Structure (SMILES)	GI50 (SN12C renal) [µM]	TGI (SN12C renal) [µM]	GI50 (ACHN renal) [µM]	TGI (ACHN renal) [µM]	GI50 (NCI-H460 lung) [µM]	TGI (NCI-H460 lung) [µM]	GI50 (DU-145 prostate) [µM]	TGI (DU-145 prostate) [µM]	GI50 (NCI-H23 lung) [µM]	TGI (NCI-H23 lung) [µM]	GI50 (EKVX NSCLC) [µM]	TGI (EKVX NSCLC) [µM]	GI50 (KM12 colon) [µM]	TGI (KM12 colon) [µM]	GI50 (UACC-257 melanoma) [µM]	TGI (UACC-257 melanoma) [µM]	GI50 (U251 CNS) [µM]	TGI (U251 CNS) [µM]	TGI (SR leukemia) [µM]
O=C(CC(=O)c1cccc(Cl)c1)c1cccc(Cl)c1	2.38	> 100	2.71	> 100	0.95	> 100	2.77	> 100	1.91	> 100	2.16	> 100	3.02	> 100	5.99	> 100	1	> 100	
CCCCCCCC(=O)OCC(=O)[C@]1(O)Cc2c(O)c3c(c(O)c2[C@@H](OC2CC(N)C(O)C(C)O2)C1)C(=O)c1c(OC)cccc1C3=O (stereo partly specified)						0.196	0.0266	0.284	0.0552	0.526	0.236	1.58	0.188	0.758					
O=C(N/N=C/c1cc(Cl)cc(Cl)c1[O-])c1ccccc1.O=C(N/N=C/c1cc(Cl)cc(Cl)c1[O-])c1ccccc1.[Co+2]	14.8	> 100	16.7	> 100	16.7	> 100			21	> 100	10.3	> 100	27.3	> 100	19.6	76.3	33.5	> 100	
NCCCCCCNCc1cccc2ccccc12		> 100		> 100		> 100				> 100		> 100		> 100		> 100		> 100	> 100
O=C(C/C(CCC(=O)N(Cc1ccccc1)Cc1ccccc1)=N/Nc1ccc([N+](=O)[O-])cc1[N+](=O)[O-])c1ccccc1						> 100				> 100		> 100		> 100		> 100		> 100	
Cc1nc2sccn2c1C(=O)NC(=O)Nc1ccc(Cl)cc1		> 100		> 100		> 100				> 100		> 100		> 100		> 100		> 100	
O=C(CCc1nnc2s/c(=C\c3ccccc3Cl)c(=O)n12)Nc1cc(Cl)ccc1Cl		> 100		> 100		> 100				> 100		> 100		> 100		> 100		> 100	> 100
S=C=NCCc1ccccc1		0.987		3		0.765				1.31		30.4		1.48		2.75		2.22	86.9
CNS(=O)(=O)OCC1OC(n2cnc3c(N)ncnc32)C(O)C1O (stereo unspecified)	> 100	> 100	> 100	> 100	> 100	> 100	> 100	> 100	> 100	> 100	> 100	> 100	> 100	> 100	> 100	> 100	> 100	> 100	
CN(C)CCNC(=O)c1cccc2ccc(-c3ccc(-c4ccccc4)cc3)nc12		20.2		12.8		2.98				16.6		24.6		5.6		3.58		4.65	4.64
